The target in series [1] is T1, glucocerebrosidase (Gcase) (Homo sapiens, UniProt P04062).
T1 sequence (P04062 40-536): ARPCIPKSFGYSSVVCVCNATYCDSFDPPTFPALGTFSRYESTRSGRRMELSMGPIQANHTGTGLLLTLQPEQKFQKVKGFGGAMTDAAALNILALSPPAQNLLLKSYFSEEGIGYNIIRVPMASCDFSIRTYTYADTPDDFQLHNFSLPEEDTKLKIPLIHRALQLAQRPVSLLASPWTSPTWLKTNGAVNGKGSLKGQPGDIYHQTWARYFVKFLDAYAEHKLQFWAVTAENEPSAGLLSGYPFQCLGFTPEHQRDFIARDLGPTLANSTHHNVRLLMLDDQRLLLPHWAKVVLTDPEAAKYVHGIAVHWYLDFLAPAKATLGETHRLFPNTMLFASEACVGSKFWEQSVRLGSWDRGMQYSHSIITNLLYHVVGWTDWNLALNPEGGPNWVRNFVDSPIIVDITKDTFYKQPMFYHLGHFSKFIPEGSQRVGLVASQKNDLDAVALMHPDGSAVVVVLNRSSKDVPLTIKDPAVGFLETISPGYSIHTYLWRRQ
The experiment in a line: Glucocerebrosidase (Gcase) activation assay, 4-methylumbelliferyl-beta-D-glucopyranoside substrate, fluorescence. To be noted: 0.25 h, 10 nM GCase, 100 nM saposin C; for activation at 0.1 µM: pH 4.7, test compound at 0.1 μM, read-out: Percent Gcase Activation 0.1 μM Test Compound; for activation at 1 µM: pH 4.7, test compound at 1.0 μM, read-out: Percent Gcase Activation 1 μM Test Compound. In kind it is biochemical. As to the method: The ability of exemplary compounds to activate glucocerebrosidase (Gcase) was measured.
A 484 μL aliquot of a 1.0 mg/mL solution of phosphatidylserine (PS) (Sigma P7769) in chloroform was evaporated under a stream of nitrogen for 1 hour. The lipid film was dissolved over 4 minutes of vigorous vortexing in 40 mL of 176 mM K2HPO4/50 mM citric acid (pH 4.7) containing 7.5 μL of triton X-100, resulting in a mixed micellar preparation with a composition of 0.32 mM triton and 0.37 mol % PS. 4-Methylumbelliferyl-beta-D-glucopyranoside (ACROS-337025000) was dissolved in the micellar solution to a final concentration of 2 mM for use as the reaction substrate.
Test compounds were diluted to the desired concentrations with dimethylsulfoxide (DMSO) from 10 mM stocks, and 0.41 μL of the DMSO compound mixture was added to 100 μL of micellar solution containing 10 nM GCase and 100 nM saposin C (Enzo ALX-201-262-C050). Pre-incubation was allowed to occur for 30 minutes at room temperature, after which the reaction was initiated by combining 25 μL of substrate solution with 25 μL of compound/GCase/saposin mixture. The reaction proceeded for 15 minutes at room temperature and was stopped by adding 150 μL of 1M glycine, pH 12.5. The endpoint of the reaction was monitored by measuring fluorescence intensity (excitation: 365 nm; emission: 440 nm) on a SpectraMax i3 instrument (Molecular Devices). Test compounds were screened at 1.0 and 0.1 μM final concentration, and subsequent 8-point dose response curves were obtained using 3-fold dilutions from a maximum final concentration of 5 μM.
For experiments in which the test compound was used at a concentration of 1.0 μM, the symbol “+” indicates less than 30% Gcase activation; the symbol “++” indicates Gcase activation in the range of 30% up to 60%; and the symbol “+++” indicates Gcase activation greater than 60%. For experiments in which the test compound was used at a concentration of 0.1 μM, the symbol “*” indicates less than 10% Gcase activation; the symbol “**” indicates Gcase activation in the range of 10% up to 20%; and the symbol “***” indicates greater than 20% Gcase activation.

A short description of series [2]: Compound solubility in water. In kind it is physicochemical.

In brackets after ≈: the same amount, converted by molar mass.

Broadly, the solubility is the concentration that dissolves in the medium under given conditions.

For `COC1CCC(Nc2cc(C)n3ccc(C(=O)NC(C)(C)C4CC4)c3n2)CC1` (stereo not drawn) [II1-37], in series [1], the activation at 0.1 µM is less than 10% and the activation at 1 µM fell in the range of 30 to 60%. This compound registered a solubility in series [2] of 10.2 µg/mL (≈ 26.5 µM).
The matching figures for `COCc1cc(C)nc2c(C(=O)NC(C)(C)C3CC3)ccn12` [III 16]: greater than 20%, greater than 60% and 19.8 µg/mL (≈ 65.7 µM).
For `COCc1cc(C(F)F)nc2c(C(=O)NC(C)(C)C3CC3)ccn12` [III-3] the same measures were greater than 20%, greater than 60% and 3.8 µg/mL (≈ 11.3 µM).
The matching figures for `COCc1cc(C(F)F)n2ccc(C(=O)NC(C)(C)C3CC3)c2n1` [III-4]: greater than 20%, greater than 60% and 17 µg/mL (≈ 50.4 µM).
For the compound `COCc1cc(C(F)F)nc2c(C(=O)NC(C)(C)C3CCC3)ccn12` [III-5], in series [1], the activation at 0.1 µM fell in the range of 10 to 20% and the activation at 1 µM was greater than 60%. This compound also gave a solubility in series [2] of 3 µg/mL (≈ 8.54 µM).
For `C[C@H](NC(=O)c1ccn2c(C(F)F)cc(C(F)F)nc12)C1CC1` [III-6] the same measures were 10 to 20%, greater than 60% and 33.5 µg/mL (≈ 102 µM).
For `Cc1cc(C(F)F)nc2c(C(=O)N[C@@H](C)C3CC3)ccn12` [III-7] the same measures were greater than 20%, greater than 60% and 9.5 µg/mL (≈ 32.4 µM).
For `Cc1cc(C(F)F)n2ccc(C(=O)N[C@@H](C)C3CC3)c2n1` [III-8] the same measures were greater than 20%, greater than 60% and 20.1 µg/mL (≈ 68.5 µM).
With `CNc1cc(C)n2ccc(C(=O)NC(C)(C)C3CC3)c2n1` [III-10], in series [1], the activation at 0.1 µM is greater than 20% and the activation at 1 µM was greater than 60%. In series [2], the solubility was found to be 11 µg/mL (≈ 38.4 µM).
For `Cc1cc(Cl)nc2c(C(=O)NC(C)(C)C3CC3)ccn12` [III-11] the same measures were greater than 20%, greater than 60% and 1.1 µg/mL (≈ 3.77 µM).
On to `Cc1cc(Cl)n2ccc(C(=O)NC(C)(C)C3CC3)c2n1` [III-12], for which, in series [1], the activation at 0.1 µM fell in the range of 10 to 20% and the activation at 1 µM was greater than 60%. The amount in solution in series [2] (solubility) came to 5.8 µg/mL (≈ 19.9 µM).
Take `COc1cc(C)n2ccc(C(=O)NC(C)(C)C3CC3)c2n1` [III-13]: in series [1], the activation at 0.1 µM is 10 to 20% and the activation at 1 µM was greater than 60%. Also, the concentration in solution in series [2] (solubility) came to 11.5 µg/mL (≈ 40 µM).
Regarding `Cc1cc(Br)nc2c(C(=O)NC(C)(C)C3CC3)ccn12` [III-14], in series [1], the activation at 0.1 µM fell in the range of 10 to 20% and the activation at 1 µM was greater than 60%. In series [2], the solubility was 2.9 µg/mL (≈ 8.62 µM).
For `COCc1cc(C)n2ccc(C(=O)NC(C)(C)C3CC3)c2n1` [III-15] the same measures were 10 to 20%, greater than 60% and 21.9 µg/mL (≈ 72.7 µM).
For `Cc1cc(F)nc2c(C(=O)NC(C)(C)C3CC3)ccn12` [III-17] the same measures were 10 to 20%, greater than 60% and 6.3 µg/mL (≈ 22.9 µM).
The matching figures for `Cc1cc(C)n2ccc(C(=O)NC3(c4ccccc4)CC3)c2n1` [III-18]: 10 to 20%, greater than 60% and 7.7 µg/mL (≈ 25.2 µM).
As for `Cc1cc(C)n2ccc(C(=O)NC(C)(C)CC3CC3)c2n1` [III-19], in series [1], the activation at 0.1 µM was greater than 20% and the activation at 1 µM was greater than 60%. This compound gave a solubility in series [2] of 14.7 µg/mL (≈ 51.5 µM).
For `COCC(NC(=O)c1ccn2c(C)cc(C)nc12)c1ccccc1` (stereo not drawn) [III-20] the same measures were less than 10%, greater than 60% and 13.7 µg/mL (≈ 42.4 µM).
The matching figures for `Cc1cc(C)n2ccc(C(=O)NC3(C4CC4)CC3)c2n1` [III-22]: 10 to 20%, greater than 60% and 21.4 µg/mL (≈ 79.5 µM).
For `Cc1cc(C)n2ccc(C(=O)NC(C)(C)C3CC3)c2n1` [III-23] the same measures were greater than 20%, greater than 60% and 18.7 µg/mL (≈ 68.9 µM).
Turning to `Cc1cc(C)n2ccc(C(=O)NC(CC(C)C)C3CC3)c2n1` (stereo not drawn) [III-24], in series [1], the activation at 0.1 µM was greater than 20% and the activation at 1 µM is greater than 60%. Besides, the concentration in solution in series [2] (solubility) came to 10.9 µg/mL (≈ 36.4 µM).
For `Cc1cc(C)n2cc(C3CC3)c(C(=O)NC(C)(C)C3CC3)c2n1` [III-25] the same measures were less than 10%, 30 to 60% and 0.3 µg/mL (≈ 0.963 µM).
For `Cc1cc(C)n2c(C)cc(C(=O)N[C@@H](C)C3CC3)c2n1` [III-26] the same measures were 10 to 20%, greater than 60% and 8.6 µg/mL (≈ 31.7 µM).
For `Cc1cc(C)n2cc(C)c(C(=O)N[C@@H](C)C3CC3)c2n1` [III-27] the same measures were 10 to 20%, greater than 60% and 8.6 µg/mL (≈ 31.7 µM).
In the case of `Cc1cc(-c2cocn2)nc2c(C(=O)N[C@H]3CCCc4ccccc43)ccn12` [III-28], in series [1], the activation at 0.1 µM is less than 10% and the activation at 1 µM fell in the range of 30 to 60%. The amount in solution in series [2] (solubility) came to 1.4 µg/mL (≈ 3.76 µM).
For `Cc1cc(C)n2ccc(C(=O)NC3(c4ccc(F)cc4)CCOCC3)c2n1` [III-29] the same measures were less than 10%, 30 to 60% and 2.4 µg/mL (≈ 6.53 µM).
For `Cc1cc(-c2ccc(F)cc2)nc2c(C(=O)N[C@@H](C)C3CC3)ccn12` [III-30] the same measures were greater than 20%, greater than 60% and 0.1 µg/mL (≈ 0.296 µM).
The matching figures for `Cc1cc(-c2ccc(F)cc2)n2ccc(C(=O)N[C@@H](C)C3CC3)c2n1` [III-31]: less than 10%, 30 to 60% and 0.7 µg/mL (≈ 2.07 µM).
Regarding `Cc1ccnc2c(C(=O)NC3(c4ccccc4OC4CC4)CC3)ccn12` [III-34], in series [1], the activation at 0.1 µM is less than 10% and the activation at 1 µM was 30 to 60%. In series [2], the solubility was determined as 6.3 µg/mL (≈ 18.1 µM).
`Cc1cc(C)n2ccc(C(=O)NC(Cc3ccccc3)c3ccccc3)c2n1` (stereo not drawn) [IV-38] yielded a solubility in series [2] of 0.2 µg/mL (≈ 0.541 µM).
Turning to `Cc1cc(C)n2ccc(C(=O)N[C@@H](C)c3cccc4c3CCCC4)c2n1` [IV-99], in series [1], the activation at 0.1 µM is greater than 20% and the activation at 1 µM is greater than 60%.
The matching figures for `CCc1ccc([C@@H](C)NC(=O)c2ccn3c(C)cc(C)nc23)cc1` [IV-100]: 10 to 20% and greater than 60%.
For `CCC(CO)(NC(=O)c1ccn2c(C)cc(C)nc12)c1ccccc1` (stereo not drawn) [IV-101] the same measures were less than 10% and 30 to 60%.
For `Cc1cc(C)n2ccc(C(=O)NC(C)c3cccc(N4CCCC4)c3)c2n1` (stereo not drawn) [IV-102] the same measures were less than 10% and greater than 60%.
Take `Cc1cc(C)n2ccc(C(=O)NC(C)(C)c3ccc(F)cc3)c2n1` [IV-103]: in series [1], the activation at 0.1 µM is greater than 20% and the activation at 1 µM was greater than 60%.
For `Cc1cc(C)n2ccc(C(=O)NC(C)c3ccc(C)c(F)c3)c2n1` (stereo not drawn) [IV-104] the same measures were greater than 20% and greater than 60%.
For `CCC(NC(=O)c1ccn2c(C)cc(C)nc12)c1cccc(Cl)c1` (stereo not drawn) [IV-105] the same measures were greater than 20% and greater than 60%.
The matching figures for `CCn1c(C(C)NC(=O)c2ccn3c(C)cc(C)nc23)nc2c1CCCC2` (stereo not drawn) [IV-106]: less than 10% and less than 30%.
Consider `Cc1cc(C)n2ccc(C(=O)NC(C)c3ccc(F)c(C)c3)c2n1` (stereo not drawn) [IV-107], for which, in series [1], the activation at 0.1 µM lay in the range of 10 to 20% and the activation at 1 µM was greater than 60%.
The matching figures for `Cc1cc(C)n2ccc(C(=O)NC(C)c3ccccc3F)c2n1` (stereo not drawn) [IV-108]: 10 to 20% and greater than 60%.

The record behind these values is patent US11124516B2, “Pyrrolo[1,2-A]pyrimidinyl carboxamide compounds and their use in the treatment of medical disorders” (Bial—Biotech Investments, Inc., priority 2016, dated 2021).
